Activity calls are given as the source filed them. No cut-off for these calls is given here.
How the values were obtained:
HeLa [1] = assay: Cytotoxicity against human HeLa cells assessed as reduction in cell viability preincubated for 4 hrs under dark condition followed by irradiation with blue light at 2.5 J.cm^-2 energy level for 5 mins and measured after 18 hrs by MTT assay; assay type: functional, cell-based; details: light or radiation study
MCF7 [2] = assay: Cytotoxicity against human MCF7 cells assessed as reduction in cell viability preincubated for 4 hrs under dark condition followed by irradiation with blue light at 2.5 J.cm^-2 energy level for 5 mins and measured after 18 hrs by MTT assay; assay type: functional, cell-based; details: MCF7, light or radiation study
A-375 [3] = assay: Cytotoxicity against human A-375 cells assessed as reduction in cell viability preincubated for 4 hrs under dark condition followed by irradiation with blue light at 2.5 J.cm^-2 energy level for 5 mins and measured after 18 hrs by MTT assay; assay type: functional, cell-based; details: A-375, light or radiation study
HeLa [4] = assay: Cytotoxicity against human HeLa cells assessed as reduction in cell viability preincubated for 4 hrs under dark condition in presence of deferiprone followed by irradiation with blue light at 2.5 J.cm^-2 energy level for 5 mins and measured after 18 hrs by MTT assay; assay type: functional, cell-based; details: light or radiation study
MCF7 [5] = assay: Cytotoxicity against human MCF7 cells assessed as reduction in cell viability preincubated for 4 hrs under dark condition in presence of deferiprone followed by irradiation with blue light at 2.5 J.cm^-2 energy level for 5 mins and measured after 18 hrs by MTT assay; assay type: functional, cell-based; details: MCF7, light or radiation study
A-375 [6] = assay: Cytotoxicity against human A-375 cells assessed as reduction in cell viability preincubated for 4 hrs under dark condition in presence of deferiprone followed by irradiation with blue light at 2.5 J.cm^-2 energy level for 5 mins and measured after 18 hrs by MTT assay; assay type: functional, cell-based; details: A-375, light or radiation study
HeLa [7] = assay: Cytotoxicity against human HeLa cells assessed as reduction in cell viability at 100 to 400 uM incubated for 4 hrs under dark condition by MTT assay; assay type: functional, cell-based; details: dose 100-400 µM
MCF7 [8] = assay: Cytotoxicity against human MCF7 cells assessed as reduction in cell viability at 100 to 400 uM incubated for 4 hrs under dark condition by MTT assay; assay type: functional, cell-based; details: dose 100-400 µM
A-375 [9] = assay: Cytotoxicity against human A-375 cells assessed as reduction in cell viability at 100 to 400 uM incubated for 4 hrs under dark condition by MTT assay; assay type: functional, cell-based; details: dose 100-400 µM
HeLa [10] = assay: Cytotoxicity against human HeLa cells assessed as reduction in cell viability at 100 to 400 uM preincubated for 4 hrs under dark condition followed by irradiation with blue light at 5 J.cm^-2 energy level and measured after 18 hrs by MTT assay; assay type: functional, cell-based; details: dose 100-400 µM, time 22.0 hrs
MCF7 [11] = assay: Cytotoxicity against human MCF7 cells assessed as reduction in cell viability at 100 to 400 uM preincubated for 4 hrs under dark condition followed by irradiation with blue light at 5 J.cm^-2 energy level and measured after 18 hrs by MTT assay; assay type: functional, cell-based; details: dose 100-400 µM, time 22.0 hrs
A-375 [12] = assay: Cytotoxicity against human A-375 cells assessed as reduction in cell viability at 100 to 400 uM preincubated for 4 hrs under dark condition followed by irradiation with blue light at 5 J.cm^-2 energy level and measured after 18 hrs by MTT assay; assay type: functional, cell-based; details: dose 100-400 µM, time 22.0 hrs
HeLa [13] = assay: Cytotoxicity against human HeLa cells assessed as reduction in cell viability preincubated for 4 hrs under dark condition in presence of 5-aminolevulinic acid followed by irradiation with blue light at 2.5 J.cm^-2 energy level for 5 mins and measured after 18 hrs by MTT assay; assay type: functional, cell-based; details: light or radiation study
MCF7 [14] = assay: Cytotoxicity against human MCF7 cells assessed as reduction in cell viability preincubated for 4 hrs under dark condition in presence of 5-aminolevulinic acid followed by irradiation with blue light at 2.5 J.cm^-2 energy level for 5 mins and measured after 18 hrs by MTT assay; assay type: functional, cell-based; details: MCF7, light or radiation study
A-375 [15] = assay: Cytotoxicity against human A-375 cells assessed as reduction in cell viability preincubated for 4 hrs under dark condition in presence of 5-aminolevulinic acid followed by irradiation with blue light at 2.5 J.cm^-2 energy level for 5 mins and measured after 18 hrs by MTT assay; assay type: functional, cell-based; details: A-375, light or radiation study
HeLa [16] = assay: Cytotoxicity against human HeLa cells assessed as reduction in cell viability at 100 uM incubated for 4 hrs under dark condition by MTT assay; assay type: functional, cell-based
[17] = Drug metabolism assessed as esterase (unknown origin) mediated hydrolysis by measuring 5-Aminolevulinic acid formation; assay type: ADME; details: human
[18] = Drug metabolism assessed as esterase (unknown origin) mediated hydrolysis by measuring hydroxypyridinone formation; assay type: ADME; details: human
[19] = Prodrug release in human Hela cells assessed as 3-[(1Z,4Z,9Z,15Z)-7-(2-carboxyethyl)-3,8,12,17-tetramethyl-13,18-divinyl-21,23-dihydroporphyrin-2-yl]propanoic acid release by measuring increase in fluorescence intensity at 20 to 80 uM by microplate reader analysis; assay type: ADME, cell-based; details: dose 20-80 µM
[20] = Prodrug release in human MCF7 cells assessed as 3-[(1Z,4Z,9Z,15Z)-7-(2-carboxyethyl)-3,8,12,17-tetramethyl-13,18-divinyl-21,23-dihydroporphyrin-2-yl]propanoic acid release by measuring increase in fluorescence intensity at 20 to 80 uM by microplate reader analysis; assay type: ADME, cell-based; details: mcf7, 80 µM, dose 20-80 µM
[21] = Prodrug release in human A-375 cells assessed as 3-[(1Z,4Z,9Z,15Z)-7-(2-carboxyethyl)-3,8,12,17-tetramethyl-13,18-divinyl-21,23-dihydroporphyrin-2-yl]propanoic acid release by measuring increase in fluorescence intensity at 20 to 80 uM by microplate reader analysis; assay type: ADME, cell-based; details: a-375, 80 µM, dose 20-80 µM
MCF7 [22] = assay: Cytotoxicity against human MCF7 cells assessed as reduction in cell viability at 100 uM incubated for 4 hrs under dark condition by MTT assay; assay type: functional, cell-based
A-375 [23] = assay: Cytotoxicity against human A-375 cells assessed as reduction in cell viability at 100 uM incubated for 4 hrs under dark condition by MTT assay; assay type: functional, cell-based

Row | Compound | IC50 (HeLa [1]) | IC50 (MCF7 [2]) | IC50 (A-375 [3]) | Activity (HeLa [7]) | Activity (MCF7 [8]) | Activity (A-375 [9]) | Activity (HeLa [10]) | Activity (MCF7 [11]) | Activity (A-375 [12]) | other results
1 | NCC(=O)CCC(=O)O [AMINOLEVULINIC ACID] | > 100 µM | > 100 µM | > 100 µM | – | – | – | – | – | – | IC50 (HeLa [4]): 61.8 µM; IC50 (MCF7 [5]): 65 µM; IC50 (A-375 [6]): 27.2 µM
2 | COC(=O)CCC(=O)CNC(=O)CCCn1cc(O)c(=O)cc1C | – | – | – | inactive | inactive | inactive | inactive | inactive | inactive | –
3 | Cc1c(O)c(=O)ccn1C [DEFERIPRONE] | – | – | – | – | – | – | – | – | – | IC50 (HeLa [13]): 61.8 µM; IC50 (MCF7 [14]): 65 µM; IC50 (A-375 [15]): 27.2 µM
4 | COC(=O)CCC(=O)CNC(=O)[C@H](Cc1ccccc1)NC(=O)CCCCCn1cc(O)c(=O)cc1C | – | – | – | inactive | inactive | inactive | inactive | inactive | inactive | –
5 | COC(=O)CCC(=O)CNC(=O)[C@H](CC(C)C)NC(=O)Cn1cc(O)c(=O)cc1C | – | – | – | inactive | inactive | inactive | inactive | inactive | inactive | –
6 | COC(=O)CCC(=O)CNC(=O)CCn1cc(O)c(=O)cc1CO | – | – | – | inactive | inactive | inactive | inactive | inactive | inactive | –
7 | COC(=O)CCC(=O)CNC(=O)Cn1cc(O)c(=O)cc1CO | – | – | – | inactive | inactive | inactive | inactive | inactive | inactive | –
8 | CCCCCCCCn1c(C)cc(=O)c(O)c1COC(=O)CCC(=O)CN.Cl | 44.2 µM | 48.9 µM | 38.5 µM | – | – | – | – | – | – | Activity (HeLa [16]): Active; Drug metabolism [17]: Metabolite_Detected; Drug metabolism [18]: Metabolite_Detected; Drug metabolism [19]: Metabolite_Detected; Drug metabolism [20]: Metabolite_Detected; Drug metabolism [21]: Metabolite_Detected
9 | COC(=O)CCC(=O)CNC(=O)[C@H](CC(C)C)NC(=O)Cn1ccc(=O)c(O)c1C | – | – | – | inactive | inactive | inactive | inactive | inactive | inactive | –
10 | COC(=O)CCC(=O)CNC(=O)CCCCCn1cc(O)c(=O)cc1C | – | – | – | inactive | inactive | inactive | inactive | inactive | inactive | –
11 | COC(=O)CCC(=O)CNC(=O)CCCn1cc(O)c(=O)cc1CO | – | – | – | inactive | inactive | inactive | inactive | inactive | inactive | –
12 | Cc1cc(=O)c(O)c(COC(=O)CCC(=O)CN)n1CCc1ccccc1.Cl | 30 µM | 67.7 µM | 47.3 µM | – | – | – | – | – | – | Activity (HeLa [16]): inactive; Activity (MCF7 [22]): inactive; Activity (A-375 [23]): inactive; Drug metabolism [17]: Metabolite_Detected; Drug metabolism [18]: Metabolite_Detected; Drug metabolism [19]: Metabolite_Detected; Drug metabolism [20]: Metabolite_Detected; Drug metabolism [21]: Metabolite_Detected
13 | COC(=O)CCC(=O)CNC(=O)CCCCn1cc(O)c(=O)cc1C | – | – | – | inactive | inactive | inactive | inactive | inactive | inactive | –
14 | COC(=O)CCC(=O)CNC(=O)Cn1cc(O)c(=O)cc1C | – | – | – | inactive | inactive | inactive | inactive | inactive | inactive | –
15 | COC(=O)CCC(=O)CNC(=O)CCCCn1cc(O)c(=O)cc1CO | – | – | – | inactive | inactive | inactive | inactive | inactive | inactive | –
16 | COC(=O)CCC(=O)CNC(=O)[C@H](Cc1ccccc1)NC(=O)Cn1ccc(=O)c(O)c1C | – | – | – | inactive | inactive | inactive | inactive | inactive | inactive | –
17 | COCCCn1c(C)cc(=O)c(O)c1COC(=O)CCC(=O)CN.Cl | 65.7 µM | 57.2 µM | 50.6 µM | – | – | – | – | – | – | Activity (HeLa [16]): inactive; Activity (MCF7 [22]): inactive; Activity (A-375 [23]): inactive; Drug metabolism [17]: Metabolite_Detected; Drug metabolism [18]: Metabolite_Detected; Drug metabolism [19]: Metabolite_Detected; Drug metabolism [20]: Metabolite_Detected; Drug metabolism [21]: Metabolite_Detected
18 | COC(=O)CCC(=O)CNC(=O)[C@H](Cc1ccccc1)NC(=O)Cn1cc(O)c(=O)cc1C | – | – | – | inactive | inactive | inactive | inactive | inactive | inactive | –
19 | CCCCCn1c(C)cc(=O)c(O)c1COC(=O)CCC(=O)CN.Cl | 47.5 µM | 45.8 µM | 46.4 µM | – | – | – | – | – | – | Activity (HeLa [16]): inactive; Activity (MCF7 [22]): inactive; Activity (A-375 [23]): inactive; Drug metabolism [17]: Metabolite_Detected; Drug metabolism [18]: Metabolite_Detected; Drug metabolism [19]: Metabolite_Detected; Drug metabolism [20]: Metabolite_Detected; Drug metabolism [21]: Metabolite_Detected
20 | CCCCn1c(C)cc(=O)c(O)c1COC(=O)CCC(=O)CN.Cl | 68.8 µM | 38 µM | 41.7 µM | – | – | – | – | – | – | Activity (HeLa [16]): inactive; Activity (MCF7 [22]): inactive; Activity (A-375 [23]): inactive; Drug metabolism [17]: Metabolite_Detected; Drug metabolism [18]: Metabolite_Detected; Drug metabolism [19]: Metabolite_Detected; Drug metabolism [20]: Metabolite_Detected; Drug metabolism [21]: Metabolite_Detected
21 | COC(=O)CCC(=O)CNC(=O)CCn1cc(O)c(=O)cc1C | – | – | – | inactive | inactive | inactive | inactive | inactive | inactive | –
22 | COC(=O)CCC(=O)CNC(=O)CCCCCn1cc(O)c(=O)cc1CO | – | – | – | inactive | inactive | inactive | inactive | inactive | inactive | –
23 | CCOCCCn1c(C)cc(=O)c(O)c1COC(=O)CCC(=O)CN.Cl | 43.9 µM | 64.7 µM | 52.2 µM | – | – | – | – | – | – | Activity (HeLa [16]): inactive; Activity (MCF7 [22]): inactive; Activity (A-375 [23]): inactive; Drug metabolism [17]: Metabolite_Detected; Drug metabolism [18]: Metabolite_Detected; Drug metabolism [19]: Metabolite_Detected; Drug metabolism [20]: Metabolite_Detected; Drug metabolism [21]: Metabolite_Detected
